In PubChem BioAssay AID1963977 (Molecular Pharmacology Branch, DTP, NCI, 2024):
Values joined by “and” are separate entries in the source; they are usually repeats but may differ in a detail not shown here. Equal values may be shown once.

Tested on: 624824-186-R-J3-PDC multicell spheroids, viability
Assay: Anticancer human tumor 624824-186-R-J3-PDC patient-derived colon adenocarcinoma cell line growth inhibition [PI3K]
Details: for viability, T/C: stronger effect = lower value
In short: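 Agents were dosed from a top concentration near clinical Cmax (otherwise 10 microM) in half-log decrements, alone or combined with PI3K inhibitors. The spheroids contain tumor cells plus endothelial (HUVEC) and MSC stroma; viability is measured.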
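Also: spheroids exposed to agents for seven days before luminescence read.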
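For viability, T/C in this document: luminescent signal used as a stand-in for spheroid viability; percent viability relative to DMSO vehicle control wells taken as 100%.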

Cn1nccc1Nc1nccc(-c2ccn(C(CO)c3ccc(Cl)c(F)c3)c(=O)c2)n1 (stereo unspecified)
viability, T/C (compound 0.0316 µM): 102% [middle of 4 runs] | viability, T/C (compound 0.1 µM): 95.1% [middle of 4 runs] | viability, T/C (compound 0.316 µM): 95.9% [middle of 4 runs] | viability, T/C (compound 1 µM): 80.8% [middle of 4 runs] | viability, T/C (compound 3.16 µM): 69.3% [middle of 4 runs] | viability, T/C (compound 10 µM): 60.9% [middle of 4 runs] | IC50 (curve of compound): > 10000 nM

Cn1cnc2c(F)c(Nc3ccc(Br)cc3Cl)c(C(=O)NOCCO)cc21
viability, T/C (compound 0.00949 µM): 97.1% and 99.4% and 96.4% | viability, T/C (compound 0.03 µM): 87.8% and 93.3% and 90.5% | viability, T/C (compound 0.0949 µM): 89.1% and 88.9% and 83.9% | viability, T/C (compound 0.3 µM): 88.5% and 82.7% and 75.8% | viability, T/C (compound 0.949 µM): 67.2% and 63.3% and 74.6% | viability, T/C (compound 3 µM): 41.4% and 38.2% and 43.1% | IC50 (curve of compound): 2050 nM and 1780 nM and 2370 nM

CC(=O)c1c(C)c2cnc(Nc3ccc(N4CCNCC4)cn3)nc2n(C2CCCC2)c1=O + CC(Nc1ccc2c(c1)OCCn1cc(N3C(=O)OCC3C(F)F)nc1-2)C(N)=O
IC50 (curve of first compound, second compound 0.00316 µM): > 100 nM | IC50 (curve of first compound, second compound 0.01 µM): > 100 nM | IC50 (curve of first compound, second compound 0.0316 µM): > 100 nM | IC50 (curve of first compound, second compound 0.1 µM): > 100 nM | IC50 (curve of first compound, second compound 0.316 µM): > 100 nM | IC50 (curve of first compound, second compound 1 µM): > 100 nM | viability, T/C (second compound 0.00316 µM, first compound 0.000316 µM): 100% | viability, T/C (second compound 0.00316 µM, first compound 0.001 µM): 101% | viability, T/C (second compound 0.00316 µM, first compound 0.00316 µM): 101% | viability, T/C (second compound 0.00316 µM, first compound 0.01 µM): 105% | viability, T/C (second compound 0.00316 µM, first compound 0.0316 µM): 99% | viability, T/C (second compound 0.00316 µM, first compound 0.1 µM): 110% | viability, T/C (second compound 0.01 µM, first compound 0.000316 µM): 108% | viability, T/C (second compound 0.01 µM, first compound 0.001 µM): 94.6% | viability, T/C (second compound 0.01 µM, first compound 0.00316 µM): 106% | viability, T/C (second compound 0.01 µM, first compound 0.01 µM): 102% | viability, T/C (second compound 0.01 µM, first compound 0.0316 µM): 108% | viability, T/C (second compound 0.01 µM, first compound 0.1 µM): 106% | viability, T/C (second compound 0.0316 µM, first compound 0.000316 µM): 101% | viability, T/C (second compound 0.0316 µM, first compound 0.001 µM): 105% | viability, T/C (second compound 0.0316 µM, first compound 0.00316 µM): 84.5% | viability, T/C (second compound 0.0316 µM, first compound 0.01 µM): 105% | viability, T/C (second compound 0.0316 µM, first compound 0.0316 µM): 104% | viability, T/C (second compound 0.0316 µM, first compound 0.1 µM): 97.3% | viability, T/C (second compound 0.1 µM, first compound 0.000316 µM): 101% | viability, T/C (second compound 0.1 µM, first compound 0.001 µM): 99% | viability, T/C (second compound 0.1 µM, first compound 0.00316 µM): 95.7% | viability, T/C (second compound 0.1 µM, first compound 0.01 µM): 107% | viability, T/C (second compound 0.1 µM, first compound 0.0316 µM): 107% | viability, T/C (second compound 0.1 µM, first compound 0.1 µM): 102% | viability, T/C (second compound 0.316 µM, first compound 0.000316 µM): 99.2% | viability, T/C (second compound 0.316 µM, first compound 0.001 µM): 95.5% | viability, T/C (second compound 0.316 µM, first compound 0.00316 µM): 106% | viability, T/C (second compound 0.316 µM, first compound 0.01 µM): 99.8% | viability, T/C (second compound 0.316 µM, first compound 0.0316 µM): 108% | viability, T/C (second compound 0.316 µM, first compound 0.1 µM): 104% | viability, T/C (second compound 1 µM, first compound 0.000316 µM): 91.3% | viability, T/C (second compound 1 µM, first compound 0.001 µM): 96% | viability, T/C (second compound 1 µM, first compound 0.00316 µM): 97.9% | viability, T/C (second compound 1 µM, first compound 0.01 µM): 94.8% | viability, T/C (second compound 1 µM, first compound 0.0316 µM): 88.5% | viability, T/C (second compound 1 µM, first compound 0.1 µM): 81.3%
